Experimental data published in US3982931A, “N,N-di-sec.butyl-benzamide herbicides” (priority 1967, dated 1976).

Experiments:
Test in all cases: herbicidal activity, soil treatment one day after sowing
Type in all cases: in vivo
[1] = test system: amaranthus retroflexus L.
From the text: (§1) The infesting species and the agrarian species have been indicated in Table 1 by letters, as follows:
A = amaranthus retroflexus L.
(§2) Method of evaluation of the results (of tests):
(§3) 1 slight differences with respect to the control;
(§4) 3 = considerable activity with damages that definitely impair the further development of most of the small plants; an activity degree already useful for practical purposes;
(§5) 4 = maximum of activity with lack of germination or total containment of the small plants in the emerging stage.
(§6) In the case of an intermediate activity between two classes of the scale, both values are recorded with the one which corresponds to the preeminent activity preceding.
(§7) TABLE 2 reports the activity data of other compounds that fall within the class which is the object of this invention.
(§8) TABLE 3 reports data on the herbicidal activity against infesting herbs, while TABLE 4 reports data concerning the activity on useful species of agricultural cultivations. These tables employ the criterion explained previously. […]

artemisia vulgaris L. = test system: artemisia vulgaris L.
From the text: as §1
B = artemisia vulgaris L.
as §2, §3, §4, §5, §6, §7, §8

chenopodium album L. = test system: chenopodium album L.
From the text: as §1, §2, §3, §4, §5, §6, §7, §8

[2] = test system: echinocloa crus-galli R.S.
From the text: as §1
D = echinocloa crus-galli R.S.
as §2, §3, §4, §5, §6, §7, §8

setaria glauca L. = test system: setaria glauca L.
From the text: as §1, §2, §3, §4, §5
In the case of an intermediate activity between two classes of the scale, both values are recorded with the one which corresponds to the preeminent activity preceding. […]
as §8

vicia sativa L. = test system: vicia sativa L.
From the text: as §1, §2, §3, §4, §5, §6, §7

Row | Structure (SMILES) | activity on A, 0-4 scale ([1]; 6 kg/ha) | activity on B, 0-4 scale (artemisia vulgaris L.; 6 kg/ha) | activity on C, 0-4 scale (chenopodium album L.; 6 kg/ha) | activity on D, 0-4 scale ([2]; 6 kg/ha) | activity on E, 0-4 scale (setaria glauca L.; 6 kg/ha) | activity on F, 0-4 scale (vicia sativa L.; 6 kg/ha) | further results
1 | CCC(C)N(C(=O)c1cc(Cl)cc(Br)c1)C(C)CC (centres unmarked) [PA626, 3-bromo,5-chloro-N,N-di-sec.butyl-benzamide] | 1-2 | 0-1 | 0-1 | 3-4 | 4 | 0 | 
2 | CCCCN(CCCC)C(=O)c1ccc(Cl)c(Cl)c1 [PA105, 3,4-dichloro-N,N-di-n.butyl-benzamide, reference compound] | 1-2 | 1-2 | 1 | 1 | 2 | 0-1 | activity on B, 0-4 scale (artemisia vulgaris L.; 3 kg/ha): 0-1; activity on C, 0-4 scale (chenopodium album L.; 3 kg/ha): 0-1; activity on D, 0-4 scale ([2]; 3 kg/ha): 0-1; activity on E, 0-4 scale (setaria glauca L.; 3 kg/ha): 1; activity on F, 0-4 scale (vicia sativa L.; 3 kg/ha): 0
3 | CCC(C)N(C(=O)c1cc(Cl)c(Cl)c(Cl)c1)C(C)CC (centres unmarked) [PA621, 3,4,5-trichloro-N,N-di-sec.butyl-benzamide] | 2 | 2 | 2 | 4 | 4 | 0 | 
4 | CCCCN(C(=O)c1cccc(Br)c1)C(C)CC (centres unmarked) [PA525, 3-bromo-N,n.butyl-N-sec.butyl-benzamide] | 1-2 | 0-1 | 1 | 3 | 3-4 | 0 | 
5 | CCCN(CCC)C(=O)c1cccc(C)c1 [PA384, 3,methyl-N,N-di-n.propyl-benzamide, reference compound] | 1 | 2 | 2 | 1-2 | 0-1 | 1-2 | 
6 | CCC(C)N(C(=O)c1ccc(F)c(Br)c1)C(C)CC (centres unmarked) [PA518, 3-bromo,4-fluoro-N,N-di-sec.butyl-benzamide] | 2 | 3 | 3 | 3-4 | 4 | 0 | 
7 | O=C(O)c1cccc(Cl)c1 [PA439, 3,chloro-benzoic acid, reference compound] | 0 | 0 | 0 | 0 | 0 | 0 | 
8 | CCCN(CCC)C(=O)c1ccc(Cl)cc1Cl [PA200, 2,4-dichloro-N,N-di-n-propyl-benzamide, reference compound] | 3 | 2-3 | 2-3 | 2 | 1 | 0-1 | 
9 | CCC(C)N(C(=O)c1ccc(Cl)c(I)c1)C(C)CC (centres unmarked) [PA614, 4-chloro,3-iodo-N,N-di-sec.butyl-benzamide] | 1 | 0-1 | 1 | 3 |  | 0 | 
10 | CCC(C)N(C(=O)c1c(Cl)cc(Cl)cc1Cl)C(C)CC (centres unmarked) [PA633, 2,4,6-trichloro-N,N-di-sec.butyl-benzamide] | 2 | 2-3 | 2-3 | 4 | 4 | 0 | 
11 | CC(C)CN(CC(C)C)C(=O)c1ccc(Cl)c(Cl)c1 [PA259, 3,4-dichloro-N,N-di-iso-butyl-benzamide, reference compound] | 1-2 | 2 | 1-2 |  |  | 0-1 | 
12 | CCC(C)N(C(=O)c1cc(Cl)ccc1Br)C(C)CC (centres unmarked) [PA504, 2-bromo,5-chloro-N,N-di-sec.butyl-benzamide] | 2 | 1-2 | 2 | 3-4 | 4 | 0-1 | activity on D, 0-4 scale ([2]; 2 kg/ha): 2-3; activity on D, 0-4 scale ([2]; 3 kg/ha): 2-3; activity on D, 0-4 scale ([2]; 4 kg/ha): 3; activity on E, 0-4 scale (setaria glauca L.; 2 kg/ha): 2-3; activity on E, 0-4 scale (setaria glauca L.; 3 kg/ha): 3; activity on E, 0-4 scale (setaria glauca L.; 4 kg/ha): 3-4
13 | CCC(C)N(C(=O)c1ccc(Br)c(I)c1)C(C)CC (centres unmarked) [PA619, 3-iodo,4-bromo-N,N-di-sec.butyl-benzamide] | 0-1 | 0 | 0-1 | 3 | 3 | 0 | 
14 | CC(C)N(C(=O)c1ccc(Cl)cc1Cl)C(C)C [PA281, 2,4-dichloro-N,N-di-isopropyl-benzamide, reference compound] | 1-2 | 2 | 0-1 | 0-1 | 0-1 | 0 | 
15 | CCCCN(CCCC)C(=O)c1cc(Cl)cc(Cl)c1 [PA294, 3,5-dichloro-N,N-di-n.butyl-benzamide, reference compound] | 0-1 | 0-1 | 1 | 2 | 3 | 0 | 
16 | Cc1cccc(C(=O)N(C(C)C)C(C)C)c1 [PA385, 3,methyl-N,N-di-isopropyl-benzamide, reference compound] | 1-2 | 2 | 1 |  | 0-1 | 0-1 | 
17 | CCC(C)N(C(=O)c1ccc(Br)c(Br)c1)C(C)CC (centres unmarked) [PA484, 3,4-dibromo-N,N-di-sec.butyl-benzamide] | 2-3 | 2-3 | 2 | 3-4 | 4-3 | 0 | activity on A, 0-4 scale ([1]; 4 kg/ha): 1-2; activity on B, 0-4 scale (artemisia vulgaris L.; 4 kg/ha): 1; activity on C, 0-4 scale (chenopodium album L.; 4 kg/ha): 1; activity on D, 0-4 scale ([2]; 4 kg/ha): 3; activity on E, 0-4 scale (setaria glauca L.; 4 kg/ha): 3; activity on F, 0-4 scale (vicia sativa L.; 4 kg/ha): 0
18 | CCCC(C)N(C(=O)c1ccc(Cl)c(Cl)c1)C(C)CC (centres unmarked) [PA634, 3,4-dichloro-N-sec.amyl,N-sec.butyl-benzamide] | 2 | 2 | 1-2 | 3 | 3-4 | 0 | 
19 | O=C(O)c1ccc(Cl)cc1Cl [PA441, 2,4-dichloro-benzoic acid, reference compound] | 0 | 0 | 0 | 0 | 0 | 0 | 
20 | CCCCN(CCCC)C(=O)c1ccc(Cl)cc1Cl [PA282, 2,4-dichloro-N,N-di-n.butyl-benzamide, reference compound] | 2 | 0 | 2 | 1 | 1 | 0-1 | 
21 | CCCCN(CCCC)C(=O)c1cccc(C)c1 [PA386, 3,methyl-N,N-di-n.butyl-benzamide, reference compound] | 3 | 1-2 | 2-3 | 0-1 | 0-1 | 0-1 | 
22 | O=C(O)c1cc(Cl)cc(Cl)c1Cl [PA304, 2,3,5-trichloro-benzoic acid, reference compound] | 1 | 1 | 0 | 0 | 0 | 3 | 
23 | O=C(O)c1ccc(Cl)c(Cl)c1 [3,4-dichloro-benzoic acid, reference compound] | 0 | 0 | 0 | 0 | 0 | 0 | 
24 | CCC(C)N(CC(C)C)C(=O)c1ccc(Cl)c(Cl)c1 (centres unmarked) [PA566, 3,4-dichloro-N-isobutyl,N-sec.butyl-benzamide] | 3 | 2-3 | 3 |  | 4 | 0-1 | 
25 | CCCN(CCC)C(=O)c1cccc(Cl)c1 [PA322, 3,chloro-N,N-di-n.propyl-benzamide, reference compound] | 1 | 1-2 | 0-1 | 1 | 0-1 |  | 
